Data set [1] has as its system motor coordination in mice. The data set is described as follows: Balance beam test. In kind it is in vivo, mouse. The note with it: 300 mg/kg i.p., B6 mice. On the procedure:
The balance beam was 97 cm×9.5 mm and elevated to 46 cm. Mice were tested on the balance beam, and missteps were counted.
Balance beam: The balance beam test was performed as described above. Ten minutes post-injection, mice were tested on the balance beam, and missteps were recorded.

Data set [2] concerns CD-1 mice. The data set can be described thus: Accelerating rotarod. In kind it is in vivo, mouse. The settings on record: MG 300 mg/kg. On the procedure: On day 1, mice were trained on the rotarod for five consecutive trials. […] The latency to fall and the rotarod speed at the time of the fall were recorded.
The subject of data set [3] is anxiety-like behavior in C57BL6/J mice. The data set is described as follows: OFT after bilateral microinjection into the basolateral amygdala (BLA). The note with it: MG 12 uM or 24 uM, 0.5 ul bilateral into BLA, over 30 m.
The test system of data set [4] is pilocarpine-induced seizures. The data set is described as follows: Pilocarpine-induced seizures. Format: in vivo, mouse. On the procedure:
Drug administration: All experiments with MG utilized crude MG obtained from Sigma-Aldrich. For pre-treatment, MG (50 or 200 mg/kg) or vehicle (0.9% saline) was administered by i.p. injection 10 minutes before the seizure-inducing agent. For treatment after seizure onset, MG (200 mg/kg) or vehicle (0.9% saline) was administered by i.p. injection ten minutes after seizure onset. For GLO1 inhibition, BrBzGCp2 (50 mg/kg) or vehicle (8% DMSO and 18% Tween-80) was administered by i.p. injection two hours before seizure induction.
Seizure induction: For picrotoxin-induced seizures, 5 mg/kg of picrotoxin in 0.9% saline was administered by i.p. injection. Seizures were scored for one hour after picrotoxin administration. For pilocarpine-induced seizures, mice were pre-treated with atropine (5 mg/kg in 0.9% saline) by i.p. injection in order to reduce the peripheral effects of pilocarpine. Thirty minutes after atropine administration, pilocarpine was administered by i.p. injection. B6 mice were treated with 250 mg/kg pilocarpine in 0.9% saline, and FVB mice (WT and Tg) were treated with 300 mg/kg pilocarpine in 0.9% saline. Seizures were scored for 90 minutes after pilocarpine administration.
Pilocarpine-induced seizures were scored as previously reported (Winawer 2011):
Stage 1: Immobility/Lying Low
Stage 2: Partial (limbic) seizures. Non-continuous twitching/tremor/shaking of tail/head/body/limbs, forelimb and/or tail extension, rigid posture, repetitive movements, head bobbing
Stage 3: Partial status epilepticus. Continuous tremor/clonic seizures of body and tail while retaining posture
Stage 4: Generalized seizures. Rearing/hyperexcitability/running/falling, tonic extension/clonic seizures with loss of posture
Stage 5: Generalized status epilepticus (continuous stage 4 seizures) resulting in death

For data set [5], the system named is anxiety-like behavior. The note with it: intracerebroventricular MG for six days (Hambsch 2010); cited from earlier work.
For data set [6], the system named is GABAA receptors in hippocampal neurons. The data set is described as follows: Whole-cell patch clamp in hippocampal neurons (HN). In kind it is cell-based, rat. On the procedure:
Reagents: All reagents were obtained from Sigma-Aldrich.
Neurons were maintained in neurobasal medium with B27 supplement and glutamax in a humidified atmosphere with 5% CO2 at 37° C.
Filter and sampling frequencies were 5 and 25 kHz, respectively, for voltage-clamp experiments and 1 and 10 kHz, respectively, for current-clamp recording. Experiments were performed at 32° C. using a feedback-controlled heated perfusion system (Warner Instruments). Vm, ligand-gated currents, and potassium channel currents were studied in a bath solution containing 1 mM CaCl2, 1 mM MgCl2, 4 mM KCl, 140 mM NaCl, 5 mM glucose, and 10 mM HEPES (pH 7.4). […] Electrodes were coated with Sigmacote (Sigma) prior to use.
Ligand-gated currents: Ligand-gated currents were studied in voltage-clamp mode by application of reagents to cells held at −50 mV.
On the technique in general: The patch-clamp technique gives a direct electrical read-out from membranes.

Data set [7] concerns glycine receptors. The data set is described as follows: Glycinergic currents in CGN. The note with it: 10 μM MG. In kind it is cell-based, rat. An excerpt: Ligand-gated currents: Ligand-gated currents were studied in voltage-clamp mode by application of reagents to cells held at −50 mV. GABAergic and glycinergic currents were activated by application of GABA and glycine and antagonized by application of SR and strychnine, respectively (Kaneda 1995). Glutamatergic currents were activated by 1-glutamate and antagonized by CNQX and AP-5 (Wyllie 1994).

The mark [8] stands for this setting: MG 50 and 200 mg/kg pre-treatment, pilocarpine 250 mg/kg, B6 mice.

Each structure is given as a SMILES string.

As for `CC(=O)C=O` [MG, methylglyoxal], the “footslips on the balance beam (ataxia)” value in data set [1] is reported as “made more footslips than vehicle-treated mice”. Moreover, in data set [2], the “speed at fall from accelerating rotarod (ataxia)” value was “fell from an accelerating rotarod at slower speeds than vehicle-treated mice”. Further, the “center duration in the OFT” value in data set [3] is “increased center duration in the OFT”. Also, the “seizure duration, treatment of ongoing seizures” value in data set [4] (MG 200 mg/kg given 10 min after pilocarpine 250 mg/kg) is given as “reduced seizure duration in mice undergoing pilocarpine-induced seizures”. For the same compound, in data set [4] (setting [8]), the “highest seizure stage reached” value is “reduced seizure stage”, the “latency to reach stage 3 (seizure onset)” value is given as “dose-dependently delayed seizure onset” and the “time spent in stage 3 (seizure duration)” value is given as “reduced seizure duration”. Moreover, in data set [5], the “anxiety-like behavior in the EPM” value is “reduced anxiety-like behavior in the EPM”. Moreover, the “peak response versus GABA in hippocampal neurons” value in data set [6] is listed as “approximately one-third of those evoked by GABA”. The “activation of glycine receptors” value in data set [7] is “did not activate”.

The record behind these values is patent US11235020B2, “Methods and compositions for inhibiting glyoxalase 1 (GLO1)” (priority 2013, dated 2022).
